The text below walks through data of patent publication US5635510A, “Substituted pyrrolidin-3-yl-alkyl-piperidines” (Merrell Pharmaceuticals Inc., priority 1994, dated 1997).

In this experiment the target is T1, NK2 receptor (Bos taurus, UniProt P05363).
T1 construct: expressed in transfected cells; host or cells: SKLKB82#3 cells
T1 sequence (P05363 1-384): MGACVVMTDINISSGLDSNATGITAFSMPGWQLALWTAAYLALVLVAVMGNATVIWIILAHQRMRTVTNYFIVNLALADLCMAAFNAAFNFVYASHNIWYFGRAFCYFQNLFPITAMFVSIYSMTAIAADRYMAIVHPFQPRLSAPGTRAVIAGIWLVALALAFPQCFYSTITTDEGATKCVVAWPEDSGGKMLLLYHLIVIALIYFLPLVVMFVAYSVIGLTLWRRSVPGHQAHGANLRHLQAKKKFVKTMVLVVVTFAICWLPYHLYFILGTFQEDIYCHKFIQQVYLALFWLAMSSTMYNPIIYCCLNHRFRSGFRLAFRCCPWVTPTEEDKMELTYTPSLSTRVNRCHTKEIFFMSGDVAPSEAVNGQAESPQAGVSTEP
Kind of experiment: Antagonism of NK2 receptor mediated (NKA-induced) phosphatidylinositol turnover in SKLKB82#3 cells. The experiment is classed as cell-based. The procedure:
Tachykinin-mediated inositol phosphate accumulation was measured in UC11 or SKLKB82#3 cells in the presence and absence of NK1 or NK2 receptor antagonists, respectively. Tissues were incubated in Krebs-Henseleit buffer at 37° C. with 95% O2 -5% CO2 gassing. Tissues were then incubated with fresh buffer containing 100 μCi of myo-[2-3H(N)] inositol at 37° C. for 60 min with gentle gassing. After washing twice in 5 ml room temperature buffer containing 10 mM LiCl, tissues were incubated for 30 min at room temperature with a buffer change at 15 min. Buffer was removed and Krebs-Henseleit buffer (containing 40 μg/ml bacitracin, 4 μg/ml each of leupeptin and chymostatin, 0.1% bovine serum albumin and 10 mM each of thiorphan and LiCl) added. After 15 min, SP was added to UC11 cells or NKA to SKLKB82#3 cells at various concentrations to start the reaction. After incubation for 60 min at room temperature the reaction was terminated by addition of 930 μl chloroform: methanol (1:2 by volume) to each tube, followed by 310 μl chloroform and 310 μl doubly distilled water. Samples were vortexed, centrifuged, and 0.9 ml of the aqueous (top) phase removed and added to 2 ml ddH2 O. The mixture was vortexed and loaded onto a 50% Bio-Rad AG 1-X8 (formate form, 100-200 mesh) exchange column (Bio-Rad Laboratories, Hercules, Calif.). The columns were washed, in order, with: 1) 10 ml doubly distilled water, 2) 5 ml of 5 mM disodium tetraborate/60 mM sodium formate, and 3) 5 ml of 1M ammonium formate/0.1M formic acid. The third elution was collected and 1 ml counted in 7 ml scintillation fluid. A 50 μl aliquot of the organic (bottom) phase was removed, dried in a scintillation vial and counted in 7 ml scintillation fluid.
The ratio of DPM in the aqueous phase aliquot (total inositol phosphates) to the DPM in the 50 μl organic phase aliquot (total [^3 H]inositol incorporated) was calculated for each sample. Data are expressed as a percent of agonist-induced accumulation of [^3 H]-inositol phosphates over basal levels. […] Dose-response graphs were constructed and the abilities of the test compounds to inhibit tachykinin-induced phosphatidyinositol turnover determined with the aid of a computer program. […] Data is expressed as percent stimulation of total inositol phosphate accumulation over basal levels and normalized to the maximum response produced by SP. […] Schild analysis is performed using dose response curves (such as those presented in FIGS. 1a and 1b) to obtain a value indicative of the strength of a competitive antagonist and is expressed as the pA2, which is the negative logarithm of the molar concentration of antagonist which reduces the effect of a dose of agonist to one-half of that expected at the dose of agonist.

`COc1cc(C(=O)N2CCC(CCN3CCC(C(N)=O)(c4ccccc4)CC3)(c3ccc(Cl)c(Cl)c3)C2)cc(OC)c1OC` (single isomer, unassigned; (+)) [Example 20, (+)-1-[2-[3-(3,4-dichloro-phenyl)-1-(3,4,5-trimethoxy-benzoyl)-pyrrolidin-3-yl]-ethyl]-4-phenylpiperidine-4-carboxylic acid amide] had a Kb of 2.14 nM. For the same compound, the NK-2 receptor slope (SKLKB82#3 cells, NKA, Schild slope, mean (95% confidence limits)) was found to be 1.00.

On to `COc1cc(C(=O)N2CCC(CCN3CCC(C(N)=O)(c4ccccc4)CC3)(c3ccc(Cl)c(Cl)c3)C2)cc(OC)c1OC` (stereo not drawn) [Example 3, 1-[2-[3-(3,4-dichloro-phenyl)-1-(3,4,5-trimethoxy-benzoyl)-pyrrolidin-3-yl]-ethyl]-4-phenyl-piperidine-4-carboxylic acid amide], for which, for the setting “SKLKB82#3 cells, FIG. 1b”, the “antagonism of NKA-induced PI turnover (in words)” value is “antagonizes both NK1 (on UC11 cells) and NK2 (on SKLKB82#3) receptors in a dose-dependent manner”.
